# Where a name gives a salt, the structure may show the parent alone.
# Tests used:
# [1] = tested on: H9C2 cardiomyocytes; type: cell-based, rat
# [2] = tested on: H9C2 cardiomyocytes; details: Dox only, 24 h, CCK-8
SMILES,protection of H9C2 viability against Dox (control studies) [1],concentration inducing cytotoxicity in H9C2 cardiomyocytes [2] [nM]
"N[C@@H](CS)C(=O)O [Cys, cysteine]",no protective effect,
C1COCCN1.COc1ccc(P(=S)(S)N2CCOCC2)cc1 (stereo not drawn) [GYY4137],no effect on viability,
"COc1cccc2c1C(=O)c1c(O)c3c(c(O)c1C2=O)C[C@@](O)(C(=O)CO)C[C@@H]3O[C@H]1C[C@H](N)[C@H](O)[C@H](C)O1 [Dox, Doxorubicin hydrochloride]",,≥ 2500

# — article PMC6225339 (Journal of the American Chemical Society, 2018)
